Results taken from patent US8293481B2, “Biomarkers for chronic vascular dysfunction” (Mayo Foundation for Medical Education and Research, priority 2006, dated 2012).

How the values were obtained:
[1] = test system: Sprague-Dawley rats, LAD ligation infarct model of CHF; assay: Left ventricular function by transthoracic echocardiography (fractional shortening) in rat infarct model of CHF; format: in vivo; conditions: 2 weeks post-infarction; captopril 2 g/l in drinking water; uninfarcted 56%, placebo 29%
Description: After intubation, rats were ventilated continuously (room air) using a small animal ventilator (Model 683, Harvard Apparatus, Holliston, Mass.). A left lateral thoracotomy incision was made along the 5th intercostal space and after the pericardium was opened, the heart was exteriorized using a retention suture placed at the apex. The left anterior descending coronary artery (LAD) was ligated twice using 6-0 prolene suture (Ethicon, Cornelia, Ga.). After chest closure with running 3-0 vicryl suture (Ethicon), rats were put in a recovery chamber with a heating pad and warming light. The post-operative survival rate reached 80%. […] Rats were fed a standard diet of Teklad rodent feed (Harlan) ad libitum and kept on a 12:12 h light-dark cycle. Rats were sacrificed at designated time intervals of 2 weeks and 4 weeks after surgery. […] Cardiac function was estimated using fractional shortening (FS) obtained from the EDD and ESD in the parasternal long axis view and calculated as FS=((EDD-ESD)/EDD)×100%.

[2] = test system: CCAAT/enhancer binding protein (C/EBP) gamma (Cebpg); assay: Affymetrix microarray gene expression in aorta post-infarction; format: in vivo, rat; conditions: 4 weeks post-infarction, higher with surgery
Description: (§1) After intubation, rats were ventilated continuously (room air) using a small animal ventilator (Model 683, Harvard Apparatus, Holliston, Mass.). A left lateral thoracotomy incision was made along the 5th intercostal space and after the pericardium was opened, the heart was exteriorized using a retention suture placed at the apex. The left anterior descending coronary artery (LAD) was ligated twice using 6-0 prolene suture (Ethicon, Cornelia, Ga.). After chest closure with running 3-0 vicryl suture (Ethicon), rats were put in a recovery chamber with a heating pad and warming light. The post-operative survival rate reached 80%. […] Rats were fed a standard diet of Teklad rodent feed (Harlan) ad libitum and kept on a 12:12 h light-dark cycle. Rats were sacrificed at designated time intervals of 2 weeks and 4 weeks after surgery. […] Isolation of total RNA: […] Surrounding peri-adventitial tissues, fat, and endothelium were then carefully cleaned away and removed. The remaining vascular smooth muscle was then frozen with liquid nitrogen, pulverized into fine powder, and resuspended in 600 μl of Buffer RLT with β-ME (10 μl β-ME: 1 ml Buffer RLT, Qiagen, Valencia, Calif.). The lysate was pipetted directly onto a QIAshredder spin column (Qiagen) placed in a 2 ml collection tube and centrifuged for 5 minutes at 14000 rpm, 4° C. The supernatant was transferred to a new microcentrifuge tube and 1 volume of 70% ethanol was added and mixed. The cleared lysate was then transferred to an RNeasy mini-column (Qiagen) placed in a 2 ml collection tube and spun for 15 seconds at ≧10,000 rpm, 4° C. The flow-through was discarded and 700 μl of Buffer RW1 (Qiagen) was added to the RNeasy column. After the column was spun for 15 seconds at ≧10,000 rpm (4° C.), it was transferred into a new 2 ml collection tube, washed, spun twice with 500 μl Buffer RPE (Qiagen), and eluted with 40 μl of RNase-free water using a microcentrifuge (≧10,000 rpm, 4° C.) for 1 minute. Final RNA samples were stored at −20° C. to prevent degradation. Determination of gene expression using Affymetrix microarrays: Gene expression analysis was conducted using a GeneChip Rat Genome 230 2.0 Array (Affymetrix, West Sacramento, Calif.), with sequences selected from the GENBANK® (World Wide Web at ncbi.nlm.nih.gov) database for expressed sequence tags (dbEST), and Reference Sequence (RefSeq) (Benson et al. (2007) Nucleic Acids Res. 35:D21-25; and Boguski et al. (1993) Nat. Genet. 4:332-333). These sequence clusters were created from the UniGene database (Wheeler et al. (2003) Nucleic Acids Res. 31:28-33; Build 99, June 2002, World Wide Web at ncbi.nlm.nih.gov) and then refined by analysis and comparison with the publicly available draft assembly of the rat genome from the Baylor College of Medicine Human Genome Sequencing Center (Gibbs et al. (2004) Nature 428:493-521). […] GENECHIP® Scanner 3000 and GENECHIP® Operating Software (GCOS) v1.1.1 (Affymetrix, West Sacramento, Calif.), enabled for high-resolution scanning, was used for the final microarray analysis. Differentially expressed genes are listed according to their GeneID number in the National Center for Biotechnology Information (NCBI) database. To ensure accurate analysis, a minimum of 3 ng of good quality total RNA at a concentration of ≧500 pg/μl was required. RNA (1 ng) was tested for its quality using an Agilent 2100 bioanalyzer (Agilent Technologies). A RNA Integrity Number (RIN) was assigned to each sample, and RIN ≧6 was considered satisfactory for proceeding with the microarray analysis. Statistics: The Affymetrix array was used to determine gene expression at 2 weeks and 4 weeks. Uninfarcted control aorta was then compared with both captopril and placebo treated aorta. Similarly, uninfarcted control portal vein was compared with both captopril and placebo treated portal vein. […]

[3] = test system: Sel (suppressor of lin-12) 1 homolog 1h. (Sel1h); assay: as above; format: in vivo, rat; conditions: 2 weeks, infarcted rats with or without captopril
Description: as §1

[4] = test system: TAO kinase 1 (Taok1); assay: as above; format: in vivo, rat; conditions: 2 weeks, infarcted rats with or without captopril
Description: as §1

[5] = test system: acyl-CoA thioesterase (ACOT8); assay: as above; format: in vivo, rat; conditions: 2 weeks, infarcted rats with or without captopril
Description: as §1

[6] = test system: afadin (Af6); assay: as above; format: in vivo, rat; conditions: 2 weeks, infarcted rats with or without captopril
Description: as §1

[7] = test system: chemokine (C-X-C motif) ligand 12 (Cxcl12); assay: as above; format: in vivo, rat; conditions: 4 weeks, surgery group without treatment less than baseline control
Description: as §1

[8] = test system: cytochrome c oxidase subunit Va (Cox5a); assay: as above; format: in vivo, rat; conditions: 4 weeks post-infarction, higher with surgery
Description: as §1

[9] = test system: glutaminase 2 (Gls2); assay: as above; format: in vivo, rat; conditions: 4 weeks, highest in the infarct group without therapy
Description: as §1

[10] = test system: glycerophosphodiester phosphodiesterase (MIR16); assay: as above; format: in vivo, rat; conditions: 2 weeks, infarcted rats with or without captopril
Description: as §1

[11] = test system: regulated endocrine-specific protein 18 (Resp18); assay: as above; format: in vivo, rat; conditions: 4 weeks post-infarction, higher with surgery
Description: as §1

[12] = test system: trafficking protein particle complex 1 (Trappc1); assay: as above; format: in vivo, rat; conditions: 4 weeks post-infarction, higher with surgery
Description: as §1

[13] = test system: trimethyllysine hydroxylase epsilon (Tmlhe); assay: as above; format: in vivo, rat; conditions: 4 weeks, surgery group without treatment less than baseline control
Description: as §1

## C[C@H](CS)C(=O)N1CCC[C@H]1C(=O)O [Captopril, 1-[(2S)-3-mercapto-2-methylpropionyl]-L-proline]
[1]
  fractional shortening (FS): 38%
[2]
  Cebpg expression in the aorta with captopril therapy versus surgery alone: further increase in expression
[3]
  Sel1h aortic expression level versus control rats without surgery: higher
[4]
  Taok1 aortic expression level versus control rats without surgery: higher
[5]
  ACOT8 aortic expression level versus control rats without surgery: higher
[6]
  Af6 aortic expression level versus control rats without surgery: higher
[7]
  Cxcl12 expression in the aorta with captopril: increased expression
[8]
  Cox5a expression in the aorta with captopril therapy versus surgery alone: further increase in expression
[9]
  Gls2 expression in the aorta, captopril treated group among the groups: lowest
[10]
  MIR16 aortic expression level versus control rats without surgery: higher
[11]
  Resp18 expression in the aorta with captopril therapy versus surgery alone: further increase in expression
[12]
  Trappc1 expression in the aorta with captopril therapy versus surgery alone: further increase in expression
[13]
  Tmlhe expression in the aorta with captopril: increased expression
